{
  "source": "patent US20070218033A1",
  "about": "“Composition and method of treating hepatitis C” (priority 1991, published 2007)",
  "origin": "cited, not measured here",
  "key": {"HCV-related diseases": {"tested_on": "HCV-related diseases", "conditions": "in vivo"}, "[1]": {"tested_on": "nonsmall cell lung cancer"}, "[2]": {"tested_on": "natural killer-cell activity", "conditions": "THNα1 and interferon together; immunosuppressed mice"}, "[3]": {"tested_on": "response to influenze vaccine", "conditions": "subcutaneously twice weekly"}, "[4]": {"tested_on": "Woodchuck Hepatitis Virus", "conditions": "woodchuck infected with Woodchuck Hepatitis Virus"}, "hepatitis B virus (HBV)": {"tested_on": "hepatitis B virus (HBV)", "conditions": "treated for a year"}, "[5]": {"tested_on": "chronic hepatitis C (NANB hepatitis)"}, "chronic NANB hepatitis": {"tested_on": "chronic NANB hepatitis", "conditions": "for proportion of patients with normal ALT levels at week 48: after treatment"}, "[6]": {"tested_on": "post-transfusion NANB hepatitis"}, "[7]": {"conditions": "900 μgrams/m^2 subcutaneously after radiotherapy"}},
  "note": "Like-named read-outs stand apart in the source and are kept apart here. Where no end group is shown, it is not given here.",
  "data": [
    {"compound": "Nc1nc2c(ncn2COCCO)c(=O)[nH]1", "note": "[acyclovir]", "values": [
      {"measurement": "effectiveness in HCV-related diseases", "setting": "HCV-related diseases", "value": "ineffective"}
    ]},
    {"compound": "THNα1: 28 amino acidic polypeptide, molecular weight 3100, initially isolated from TF-5, sequenced and chemically synthesized (SDAAVDTSSEITTKDLKEKKEVVEEAEN; not fully specified; ends and bridges not checked; UniProt P06454 2-29, looked up)", "values": [
      {"measurement": "T-cell numbers", "setting": "[1]; [7]", "value": "no increase"},
      {"measurement": "radiation-suppressed immune function", "setting": "[1]; [7]", "value": "some restoration"},
      {"measurement": "relapse-free survival and overall survival versus placebo group", "setting": "[1]; 900 μgrams/m^2 subcutaneously twice weekly, or daily for two weeks then twice weekly, both treatment groups", "value": "greater"},
      {"measurement": "effect on natural killer-cell activity", "setting": "[2]", "value": "synergistic effect"},
      {"measurement": "clinical or biochemical toxicity", "setting": "[3]; drug recipients", "value": "No clinical or biochemical toxicity"},
      {"measurement": "levels of antibody to influenza versus controls", "setting": "[3]; six weeks post-vaccine", "value": "higher levels"},
      {"measurement": "viral DNA replication", "setting": "[4]", "value": "suppressed"},
      {"measurement": "patients with reduced levels of serum HBV DNA", "setting": "hepatitis B virus (HBV); pooled THNα1 (5) and TF-5 (2) patients", "value": "6 of the 7"},
      {"measurement": "patients initially positive for serum HBsAg who subsequently cleared this antigen", "setting": "hepatitis B virus (HBV); pooled THNα1 and TF-5 patients", "value": "5 of 6"}
    ]},
    {"compound": "α-interferon", "values": [
      {"measurement": "mean serum ALT and histological features of the liver", "setting": "chronic HCV infection; 2 MU subcutaneously three times weekly for six months, 21 patients", "value": "improved significantly"},
      {"measurement": "other patients with a decrease in mean ALT of more than 50%", "setting": "chronic HCV infection; 2 MU subcutaneously three times weekly for six months, number of patients", "value": "three"},
      {"measurement": "complete response (decline in mean serum ALT to the normal range during therapy)", "setting": "chronic HCV infection; 2 MU subcutaneously three times weekly for six months, ten of 21 patients", "value": 48, "unit": "%"},
      {"measurement": "patients still with normal ALT values six to twelve months after discontinuation of therapy", "setting": "chronic HCV infection; 2 MU three times weekly for six months, two patients", "value": 10, "unit": "%"},
      {"measurement": "relapse within six months after the completion of treatment", "setting": "[5]; 1 MU", "value": 44, "unit": "%"},
      {"measurement": "responded to treatment (serum ALT)", "setting": "[5]; 1 MU three times weekly for 24 weeks, nine of sixteen patients", "value": 56, "unit": "%"},
      {"measurement": "relapse within six months after the completion of treatment", "setting": "[5]; 3 MU", "value": 51, "unit": "%"},
      {"measurement": "liver histology (regression of lobular and periportal inflammation)", "setting": "[5]; 3 MU three times weekly for 24 weeks", "value": "histologic improvement"},
      {"measurement": "serum ALT level became completely normal", "setting": "[5]; 3 MU three times weekly for 24 weeks, 22 of the 26 patients who responded", "value": 85, "unit": "%"},
      {"measurement": "proportion of patients with normal ALT levels at 24 weeks", "setting": "chronic NANB hepatitis; 1 MU group", "value": 45, "unit": "%"},
      {"measurement": "proportion of patients with normal ALT levels at week 48", "setting": "chronic NANB hepatitis; 1 MU group", "value": 20, "unit": "%"},
      {"measurement": "mean serum ALT levels during the 24 week treatment period", "setting": "chronic NANB hepatitis; 1 MU three times a week", "value": "decreased"},
      {"measurement": "proportion of patients with normal ALT levels at 24 weeks", "setting": "chronic NANB hepatitis; 3 MU group", "value": 39, "unit": "%"},
      {"measurement": "proportion of patients with normal ALT levels at week 48", "setting": "chronic NANB hepatitis; 3 MU group", "value": 28, "unit": "%"},
      {"measurement": "decrease of mean serum ALT levels during the 24 week treatment period", "setting": "chronic NANB hepatitis; 3 MU three times a week", "value": "statistically significant"},
      {"measurement": "relapse in disease activity among responders when interferon was stopped", "setting": "chronic NANB hepatitis; fraction of the responders", "value": "approximately half"},
      {"measurement": "severity of histological changes in repeat liver biopsy specimens", "setting": "chronic NANB hepatitis; higher dose group (3 MU)", "value": "significant decrease"},
      {"measurement": "severity of histological changes in repeat liver biopsy specimens", "setting": "chronic NANB hepatitis; lower dose group (1 MU)", "value": "not in the lower dose group"},
      {"measurement": "side effects", "setting": "[6]; 1 MU/day", "value": "virtually absent"},
      {"measurement": "patients who improved their serum alanine transaminase (ALT) levels within one month of starting therapy", "setting": "[6]; 5 MU daily in seven patients, 1 MU daily in three patients, ten patients", "value": "eight of ten"},
      {"measurement": "side effects", "setting": "[6]; 5 MU/day dose", "value": "common"},
      {"measurement": "degree of portal inflammation and loss of parenchymal hepatocytic necrosis in post-treatment liver biopsies", "setting": "[6]; three patients with post-treatment liver biopsies", "value": "marked improvement"}
    ]}
  ]
}
